Laboratory results reported in patent publication US9856298B2 (priority 2011, dated 2018).
≈ marks a conversion by molar mass, not a printed value. Where two headings read alike, the source gives them in different places. Numbered stars: 1 amine (or outer) side, 2 acyl side, 3 side chain; on linkers, the order of the positions; unused ones are H or OH. Square brackets hold non-standard residues; d marks the D form. Primed or numbered codes have the meaning given here. Peptide text beside a SMILES is read from it. * marks the point of attachment. δOrn(α-TMG) = CN(C)C(=N[C@@H](CCCN[*:1])C(=O)[*:2])N(C)C; Guan″ = guanidino group at the N-terminus, N=C(N)*; tPEG5000 = PEG of 5000 linked via thiol group; Guan = N-guanidino (N-terminal), N=C(N)*; Hyp = O=C(O)[C@@H]1C[C@@H](O)CN1; Tle = CC(C)(C)[C@H](N)C(=O)O; Orn = NCCC[C@H](N)C(=O)O

How the values were obtained:
mouse serum (100%) = conditions: 37° C., up to 6 hours
[1] = system: Escherichia coli strain BL21AI; assay: Minimum inhibitory concentration in 1% TSB; format: cell-based; conditions: for MIC in TSB: E. coli BL21AI, 1% TSB, 20 hours at 37° C.
Experimental: (§1) To that end, the peptides were dissolved in water and diluted in a two-fold dilution series with 1% aqueous soybean medium (TSB) in sterile 96-well plates (Greiner Bio-One GmbH) from 128 μg/ml in twelve dilution steps to 62.5 ng/ml. Overnight cultures of Escherichia coli strain BL21AI were adjusted with 1% TSB to about […] colony forming units per ml. In each case 50 μl of peptide solution per well were then mixed with in each case 50 μl of the bacteria solution, in order to achieve a starting concentration of 4×10^5 bacteria per well. After incubation for 20 hours at 37° C., the absorption at 595 nm was determined (microplate reader, TECAN Trading AG).

[2] = system: Escherichia coli strain BL21AI; assay: Minimum inhibitory concentration in TSB in the presence of 25% mouse serum; format: cell-based; conditions: E. coli BL21AI, TSB with 25% mouse serum, 20 hours at 37° C.
Experimental: as §1
In addition, the antibacterial activity was also determined in the presence of 25% mouse serum. To that end, the MIC values were determined as described above, but 25 μl of mouse serum were also added to each well before the incubation (25% final concentration).

[3] = mouse; for uncleaved peptide remaining after the indicated time (instead of half-life): serum, 15 µg/ml
Experimental: 30 μl of a 1 mg/ml peptide solution were diluted with 120 μl of water and, after addition of 50 of serum, incubated at 37° C. for 0 hours, 0.5 hour, 1 hour, 2 hours or 4 hours. Alternatively, the peptide derivatives having a starting concentration of 3 mg/ml were diluted with serum to a final concentration of 15 μg/ml. According to the stability of the peptides, the samples were analysed at the times mentioned above or after 0 hours, 4 hours and 6 hours. The serum proteins were precipitated by addition of 50 μl of 15% TCA, and the supernatant was neutralised with 25 μl of 1 mol/l NaOH. The samples were made up to 250 μl with 5% B, 230 μl of the solution were transferred into a HPLC vial, and 220 μl were injected.
RP-HPLC analysis was carried out with a linear acetonitrile gradient (Biosolve BV, Valkenswaard, Netherlands) in the presence of 0.1% trifluoroacetic acid (TFA, UV grade, Fluka Chemie GmbH, Buchs, Switzerland) as ion-pair reagent. The fractions were co-crystallised with α-cyanohydroxycinnamic acid (Bruker Daltonik GmbH; Bremen, Germany) as matrix (4 mg/ml in 60% acetonitrile in 0.1% aqueous TFA) and analysed with a tandem mass spectrometer (MALDI-TOF/TOF-MS, 4700 Proteomics Analyzer; Applied Biosystems GmbH, Weiterstadt, Germany) in positive-ion reflector mode. The amount of intact peptides and their degradation products or metabolites could thus be identified and quantified at the individual times. 25% aqueous mouse serum, which was analysed in parallel for the same time intervals, was used as control.

Compound	cleaved bond (mouse serum (100%))	MIC in TSB [1] [µmol/L]	further results
Guan-ONO(sPEG^750-GARSG)RPVYIPRPRPPHPRL-OH	R-S	–	–
tPEG^750-GAR-VDKPPYLPRPRPPROIYNO-NH2	R-V	–	–
tPEG^750-GAR-VDKPPYLPRPRPHypRHypTleYNO-NH2	R-V	–	–
H-GNNRPVYIPQPRPPHPRL-OH [Apidaecin 1b, reference compound]	–	0.48	MIC in TSB/mouse serum [2]: 1.75 µmol/L
Guan-OO(tPEG^750-GARSG)NRPVYIPRPRPPHPRL-OH (Guan-[Orn][Orn]NRPVYIPRPRPPHPRL-OH; not fully specified (residue 2)) [Api 300 (tPEG^750-GARSG)]	–	1.5	Half-life (t1/2) in serum [3]: 45 min
Guan-ONO(tPEG^5000-GAARSG)RPVYIPRPRPPHPRL-OH	R-S	–	–
Guan-ONO(tPEG^750-GARSG)RPVYIPRPRPPHPRL-OH	R-S	–	–
Guan-ONO(sPEG^750-GRSG)RPVYIPRPRPPHPRL-OH	R-S	–	–
Guan-ONO(tPEG^5000-GARSG)RPVYIPRPRPPHPRL-OH	R-S	–	–
CC(C)C[C@H](NC(=O)[C@H](Cc1ccc(O)cc1)NC(=O)[C@@H]1CCCN1C(=O)[C@@H]1CCCN1C(=O)[C@H](CCCCN)NC(=O)[C@H](CC(=O)O)NC(=O)[C@@H](N)C(C)C)C(=O)N1CCC[C@H]1C(=O)N[C@@H](CCCNC(=N)N)C(=O)N1CCC[C@H]1C(=O)N[C@@H](CCCNC(=N)N)C(=O)N1CCC[C@H]1C(=O)N1C[C@H](O)C[C@H]1C(=O)N[C@@H](CCCNC(=N)N)C(=O)N1C[C@H](O)C[C@H]1C(=O)N[C@H](C(=O)N[C@@H](Cc1ccc(O)cc1)C(=O)N[C@@H](CC(N)=O)C(=O)N[C@@H](CCCN)C(N)=O)C(C)(C)C [Onc 110] (H-VDKPPYLPRPRP[Hyp]R[Hyp][Tle]YN[Orn]-NH2)	–	6.9 (≈ 16 µg/mL)	–
Guan-O(sPEG^5000-GARSG)NNRPVYIPRPRPPHPRL-OH ({Guan″}-[Orn]NNRPVYIPRPRPPHPRL-OH; not fully specified (residue 1)) [Api 137 (sPEG^5000-GARSG)]	–	3.7	–
Guan-O(sPEG^20000-GARSG)NNRPVYIPRPRPPHPRL-OH ({Guan″}-[Orn]NNRPVYIPRPRPPHPRL-OH; not fully specified (residue 1)) [Api 137 (sPEG^20000-GARSG)]	–	10.2	–
Guan-OO(tPEG^750-GARSG)NRPVYIPRPRPPHPRL-OH	R-S	–	–
Guan-OO(sPEG^750-GRSG)NRPVYIPRPRPPHPRL-OH	R-S	–	–
sPEG^750-GAR-VDKPPYLPRPRPPROIYNO-NH2	R-V	–	–
Guan-OO(sPEG^750-GAARSG)NRPVYIPRPRPPHPRL-OH	R-S	–	–
sPEG^750-GAR-VDKPPYLPRPRPHypRHypTleYNO-NH2	R-V	–	–
Guan-OO(tPEG^750-GAARSG)NRPVYIPRPRPPHPRL-OH (Guan-[Orn][Orn]NRPVYIPRPRPPHPRL-OH; not fully specified (residue 2)) [Api 300 (tPEG^750-GAARSG)]	–	2.8	Half-life (t1/2) in serum [3]: 35 min
Guan-ONO(tPEG^750-GAARSG)RPVYIPRPRPPHPRL-OH ({Guan″}-[Orn]N[Orn]RPVYIPRPRPPHPRL-OH; not fully specified (residue 3)) [Api 301 (tPEG^750-GAARSG)]	–	2.8	Half-life (t1/2) in serum [3]: 50 min
Guan-OO(sPEG^750-GARSG)NRPVYIPRPRPPHPRL-OH	R-S	–	–
Guan-ONO(tPEG^750-GRSG)RPVYIPRPRPPHPRL-OH (Guan-[Orn]N[Orn]RPVYIPRPRPPHPRL-OH; not fully specified (residue 3)) [Api 301 (tPEG^750-GRSG)]	–	2.9	Half-life (t1/2) in serum [3]: 55 min
Guan-ONO(sPEG^750-GAARSG)RPVYIPRPRPPHPRL-OH	R-S	–	–

Compound	cleaved bond (mouse serum (100%))	MIC in TSB [1] [µmol/L]	further results
Guan-ONO(tPEG^5000-GARSG)RPVYIPRPRPPHPRL-OH ({Guan″}-[Orn]N[Orn]RPVYIPRPRPPHPRL-OH; not fully specified (residue 3)) [Api 301 (tPEG^5000-GARSG)]	–	9.2	uncleaved peptide remaining after the indicated time (instead of half-life) ([3]; 6 h): 62%
tPEG^5000-GAR-VDKPPYLPRPRPHypRHypTleYNO-NH2 (tPEG5000-GARVDKPPYLPRPRP[Hyp]R[Hyp][Tle]YN[Orn]-NH2) [tPEG^5000-GAR-Onc 110]	–	–	uncleaved peptide remaining after the indicated time (instead of half-life) ([3]; 6 h): 96%
Guan-OO(tPEG^750-GAARSG)NRPVYIPRPRPPHPRL-OH	R-S	–	–
Guan-OO(tPEG^750-GRSG)NRPVYIPRPRPPHPRL-OH	R-S	–	–
Guan-ONO(tPEG^5000-GAARSG)RPVYIPRPRPPHPRL-OH ({Guan″}-[Orn]N[Orn]RPVYIPRPRPPHPRL-OH; not fully specified (residue 3)) [Api 301 (tPEG^5000-GAARSG)]	–	>47.5	uncleaved peptide remaining after the indicated time (instead of half-life) ([3]; 5 h): 78%
Guan-ONO(tPEG^750-GARSG)RPVYIPRPRPPHPRL-OH ({Guan″}-[Orn]N[Orn]RPVYIPRPRPPHPRL-OH; not fully specified (residue 3)) [Api 301 (tPEG^750-GARSG)]	–	1.5	Half-life (t1/2) in serum [3]: 45 min
Guan-ONO(tPEG^750-GRSG)RPVYIPRPRPPHPRL-OH	R-S	–	–
Guan-OO(tPEG^5000-GRSG)NRPVYIPRPRPPHPRL-OH	R-S	–	–
Guan-OO(tPEG^5000-GAARSG)NRPVYIPRPRPPHPRL-OH (Guan-[Orn][Orn]NRPVYIPRPRPPHPRL-OH; not fully specified (residue 2)) [Api 300 (tPEG^5000-GAARSG)]	–	25.4	uncleaved peptide remaining after the indicated time (instead of half-life) ([3]; 6 h): 76%
Guan-ONO(sPEG^750-GRSG)RPVYIPRPRPPHPRL-OH ({Guan″}-[Orn]N[Orn]RPVYIPRPRPPHPRL-OH; not fully specified (residue 3)) [Api 301 (sPEG^750-GRSG)]	–	1.5	Half-life (t1/2) in serum [3]: 30 min
tPEG^750-GAR-VDKPPYLPRPRPHypRHypTleYNO-NH2 (tPEG750-GARVDKPPYLPRPRP[Hyp]R[Hyp][Tle]YN[Orn]-NH2; not fully specified) [tPEG^750-GAR-Onc 110]	–	48.4	uncleaved peptide remaining after the indicated time (instead of half-life) ([3]; 6 h): 64%
CC[C@H](C)[C@H](NC(=O)[C@H](Cc1ccc(O)cc1)NC(=O)[C@@H](NC(=O)[C@@H]1CCCN1C(=O)[C@H](CCCNC(=N)N)NC(=O)[C@H](CC(N)=O)NC(=O)[C@H](CC(N)=O)NC(=O)[C@H](CCCNC(=O)CNC(=O)[C@@H](N)CO)N=C(N(C)C)N(C)C)C(C)C)C(=O)N1CCC[C@H]1C(=O)N[C@@H](CCCNC(=N)N)C(=O)N1CCC[C@H]1C(=O)N[C@@H](CCCNC(=N)N)C(=O)N1CCC[C@H]1C(=O)N1CCC[C@H]1C(=O)N[C@@H](Cc1c[nH]cn1)C(=O)N1CCC[C@H]1C(=O)N[C@@H](CCCNC(=N)N)C(=O)N[C@@H](CC(C)C)C(=O)O [Api 137 (SG)] (H-SG[δOrn(α-TMG)]NNRPVYIPRPRPPHPRL-OH)	–	0.2 (≈ 0.487 µg/mL)	Effect of peptide linker or remaining linker residues on the MIC ([1]; compared with the unmodified peptide): does not increase the MIC or increases it only insignificantly
Guan-OO(sPEG^750-GAARSG)NRPVYIPRPRPPHPRL-OH (Guan-[Orn][Orn]NRPVYIPRPRPPHPRL-OH; not fully specified (residue 2)) [Api 300 (sPEG^750-GAARSG)]	–	2.8	Half-life (t1/2) in serum [3]: 45 min
Guan-OO(tPEG^750-GRSG)NRPVYIPRPRPPHPRL-OH (Guan-[Orn][Orn]NRPVYIPRPRPPHPRL-OH; not fully specified (residue 2)) [Api 300 (tPEG^750-GRSG)]	–	2.9	Half-life (t1/2) in serum [3]: 40 min
Guan-OO(tPEG^5000-GAARSG)NRPVYIPRPRPPHPRL-OH	R-S	–	–
Guan-ONO(tPEG^5000-GRSG)RPVYIPRPRPPHPRL-OH ({Guan″}-[Orn]N[Orn]RPVYIPRPRPPHPRL-OH; not fully specified (residue 3)) [Api 301 (tPEG^5000-GRSG)]	–	>38	uncleaved peptide remaining after the indicated time (instead of half-life) ([3]; 6 h): 75%
Guan-ONO(sPEG^750-GAARSG)RPVYIPRPRPPHPRL-OH ({Guan″}-[Orn]N[Orn]RPVYIPRPRPPHPRL-OH; not fully specified (residue 3)) [Api 301 (sPEG^750-GAARSG)]	–	5.6	Half-life (t1/2) in serum [3]: 55 min
Guan-OO(tPEG^5000-GRSG)NRPVYIPRPRPPHPRL-OH (Guan-[Orn][Orn]NRPVYIPRPRPPHPRL-OH; not fully specified (residue 2)) [Api 300 (tPEG^5000-GRSG)]	–	>44.8	uncleaved peptide remaining after the indicated time (instead of half-life) ([3]; 6 h): 75%
Guan-ONO(tPEG^5000-GRSG)RPVYIPRPRPPHPRL-OH	R-S	–	–
Guan-OO(tPEG^5000-GARSG)NRPVYIPRPRPPHPRL-OH	R-S	–	–
Guan-ONO(tPEG^750-GAARSG)RPVYIPRPRPPHPRL-OH	R-S	–	–
tPEG^5000-GAR-VDKPPYLPRPRPPROIYNO-NH2	R-V	–	–
